Paper PMC8957950 (Frontiers in Pharmacology, 2022)
Read-outs that look alike come from different tables or passages of the source.

How the values were obtained:
Gram-positive bacteria = test: Clinical and microbiological efficacy evaluation of TEI treatment; format: in vivo, human; conditions: for Eradication rate of Gram-positive bacteria: eradication or presumed eradication
Method: According to the guiding principles of Clinical Trial Technology of antibacterial agents (2014 edition) ([Writing Group of Guidance for Clinical Trials of Antibacterial Drugs, 2014]), the judgment on efficacy evaluation includes clinical efficacy and microbiological efficacy. Clinical efficacy was evaluated after 7–14 days of medication. Clinical efficacy was evaluated in terms of clinical cure and clinical failure. Clinical cure is defined as the complete resolution or significant improvement of pretreatment infection signs and symptoms such that no additional antimicrobial therapy is needed. Clinical failure is defined as no apparent response or an incomplete response that needs additional antibiotic therapy for infections. The microbiological efficacy was evaluated as eradication, presumed eradication, no eradication, and presumed no eradication. Microbiological success was defined as eradication or presumed eradication of Gram-positive bacteria ([Writing Group of Guidance for Clinical Trials of Anti-bacterial Drugs, 2014]). The primary outcomes were clinical cure and microbiological success rates at the end of treatment (EOT).
Univariate and multivariate logistic regression analyses were used to select the covariables of the regression model. We established the regression model for predicting the factors influencing the eradication of Gram-positive bacteria. In univariate analysis, the χ^2 test or the Fisher exact test was used to compare the categorical variables. Continuous variables were compared by using the Mann–Whitney U test. Covariates with p values <0.1 were included in the multivariate logistic regression analysis (backward procedure, based on the p-value of the predictor removed) ([Hammitt et al., 2019]). Multivariate logistic regression analysis was used to screen for independent risk factors. SPSS software automatically screened out the independent variables when the optimal balance was reached between the fitting degrees of the prediction model.
Independent risk factor variables were used to establish regression equations and calculate prediction probabilities. The receiver operating characteristic (ROC) curves of multivariate factors were drawn; the area under the curve (AUC), cutoff point, Youden index, sensitivity, and specificity were used to evaluate their predictive value for predicting the factors influencing the eradication of Gram-positive bacteria.

[1] = Text: Patients’ data were obtained from the inpatients’ medical database.

In the case of Teicoplanin, the “Cases of presumed eradication of Gram-positive bacteria” value (Gram-positive bacteria; CRRT group) is reported as 4 cases, the Clinical cure rate (Gram-positive bacteria; CRRT group (n = 40)) is reported as 67.5% and the “Eradication rate of Gram-positive bacteria” value (Gram-positive bacteria; CRRT group) is reported as 77.5%. For the same substance, the Clinical cure rate (Gram-positive bacteria; non-CRRT group (n = 66)) was 72.7%, the “Eradication rate of Gram-positive bacteria” value (Gram-positive bacteria; non-CRRT group) was 81.8% and the “28-day hospital mortality rate” value ([1]; CRRT group) was 22.5%. For the same substance, the “28-day hospital mortality rate” value ([1]; non-CRRT group) was 15.2%.
